According to patent EP4664463A1, “COMPUTER-IMPLEMENTED METHOD FOR OLFACTORY PROPERTY PREDICTION” (Givaudan SA, priority 2024, dated 2025):
Positions count from the first letter of the chain named. Like-named read-outs stand apart in the source and are kept apart here. One block for each molecule: values may come before it.

What was measured:
[1] = test system: OR2M2; test: Activation of modified OR2M2 by sulfur compounds in presence of copper (luciferase); format: cell-based, human; conditions: modified C-terminus
Description: The most pungent odorant in human axillary sweat with an ODT of 1 picogram / L air is 3-methyl-3-sulfanyl-hexanol (also known as 3-methyl-3-mercapto-hexanol) (Natsch et al. identification of Odoriferous Sulfanylalkanols in Human Axilla Secretions and Their Formation through Cleavage of Cysteine Precursors by a C-S Lyase Isolated from Axilla bacteria. […] 2004; 1:1058-1072). So far, no OR has been described which can selectively detect this key odorant leading to undesired axilla odor in human subjects. By screening a library of receptor variants with the C-terminal sequence SEQ ID NO: 86 in presence of copper against a library of 52 sulfur compounds (see example 5), a hitherto orphan receptor, OR2M2, was identified, which is activated by 3-methyl-3-mercapto-hexanol and closely related chemicals, but not by other sulfur odorants (Figure 19).

[2] = test system: OR10J5; test: cell-based; format: cell-based, human
Description: (§1) To create an expression plasmid, an OR coding sequence fused at the end of TM7 to the desired C-terminus sequence was synthesized by a DNA synthesis service provider (BioCat GmbH, Germany) and inserted into pcDNA3.1(+) (Invitrogen, MA, USA) downstream of the CMV promoter sequence (SEQ ID NO: 82) using BamHI and Notl restriction sites. All the synthetic OR nucleotide sequences described below in Examples 1-15 further contained at their N-terminus a nucleotide sequence encoding a signal peptide (mmLucy-FLAG-rho, SeQ ID NOs: 80, 81) and at the C-terminus the bgh terminator sequence (SEQ ID NO: 83). All the OR expression plasmids also contain a Kozak sequence (GCCACC) between the BamHI restriction site and the start codon of the signal peptide. These plasmids thus contain a constitutively expressed OR gene.

[3] = biological target: T1, OR10J5 (Homo sapiens, UniProt Q8NHC4); test: cell-based; format: cell-based
T1 construct: expressed in transfected cells; host or cells: HEK293T cells stably expressing human RTP1S (V227I) and RTP2 (L220R)
T1 sequence (Q8NHC4 1-309): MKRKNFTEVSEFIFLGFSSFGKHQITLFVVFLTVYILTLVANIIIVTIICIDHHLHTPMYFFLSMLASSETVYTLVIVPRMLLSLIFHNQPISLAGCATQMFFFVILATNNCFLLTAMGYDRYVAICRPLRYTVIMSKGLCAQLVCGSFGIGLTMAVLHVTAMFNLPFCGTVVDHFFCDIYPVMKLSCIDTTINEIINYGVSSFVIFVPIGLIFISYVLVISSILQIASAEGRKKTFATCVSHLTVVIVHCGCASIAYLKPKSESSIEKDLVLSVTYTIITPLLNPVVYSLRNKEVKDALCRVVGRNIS
Description: as §1

[4] = biological target: T2, OR10J5 (Homo sapiens, UniProt Q8NHC4); test: cell-based; format: cell-based; remark: listed apart in the source
T2 construct: expressed in transfected cells; host or cells: HEK293T cells stably expressing human RTP1S (V227I) and RTP2 (L220R)
T2 sequence (Q8NHC4 with tags, fused parts or gaps): T1 sequence (Q8NHC4 1-309) with C301K, V303L, V304L, G305K, N307K, I308C, S309C
Description: as §1

[5] = biological target: T3, OR8K3 (Homo sapiens, UniProt Q8NH51); test: cell-based; format: cell-based
T3 construct: expressed in transfected cells; host or cells: HEK293T cells stably expressing human RTP1S (V227I) and RTP2 (L220R)
T3 sequence (Q8NH51 1-312): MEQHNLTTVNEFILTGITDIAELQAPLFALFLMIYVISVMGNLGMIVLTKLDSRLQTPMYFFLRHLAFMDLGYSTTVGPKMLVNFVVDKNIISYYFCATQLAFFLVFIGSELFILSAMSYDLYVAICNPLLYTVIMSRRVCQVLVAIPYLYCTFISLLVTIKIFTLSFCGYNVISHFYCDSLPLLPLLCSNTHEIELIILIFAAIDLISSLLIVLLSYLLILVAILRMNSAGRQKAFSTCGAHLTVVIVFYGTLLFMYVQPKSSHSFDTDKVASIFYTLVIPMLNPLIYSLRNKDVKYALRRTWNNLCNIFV
Description: as §1
(§2) Thus, using the improved sensitivity of the assay provided by the modified variant, activation of OR8K3 by a broader set of mint-smelling molecules can be detected.
(§3) Knowing the importance of the C-terminal sequence for proper expression as observed in the previous examples, an obvious way to improve expression might be just to provide a hybrid receptor whereby the C-terminal domain in a non-functional or poorly functional receptor is replaced by the C-terminal domain of a functional receptor. […] Thus the C-terminal sequence of OR8K3 was replaced with the C-terminal sequence of the ambrettolide-receptor OR1N2 or the musk receptor OR5AN1. […] Thus the improvement achieved with the modified C-terminal sequences of this disclosure cannot be achieved by simply generating chimeric receptors combining a functional C-terminal domain of a functional receptor with a poorly expressed receptor.

[6] = biological target: T4, OR8K3 (Homo sapiens, UniProt Q8NH51, D295E/Y298D); test: cell-based; format: cell-based
T4 construct: expressed in transfected cells; host or cells: HEK293T cells stably expressing human RTP1S (V227I) and RTP2 (L220R)
T4 sequence (Q8NH51 with tags, fused parts or gaps D295E/Y298D): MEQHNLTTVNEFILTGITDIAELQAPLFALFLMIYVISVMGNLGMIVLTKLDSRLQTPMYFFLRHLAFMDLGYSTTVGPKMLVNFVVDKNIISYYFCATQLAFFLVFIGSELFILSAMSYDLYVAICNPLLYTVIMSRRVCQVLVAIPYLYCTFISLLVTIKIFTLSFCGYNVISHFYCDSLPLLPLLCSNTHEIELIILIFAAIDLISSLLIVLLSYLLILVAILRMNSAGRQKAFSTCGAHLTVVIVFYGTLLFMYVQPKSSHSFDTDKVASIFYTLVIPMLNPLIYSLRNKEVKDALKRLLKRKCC
Description: as §1, §2, §3

[7] = test system: OR8K3; test: cell-based; format: cell-based, human
Description: as §1, §2, §3

[8] = biological target: T5, OR7D4 (Homo sapiens, UniProt Q8NG98, D296E/E302K/G299D); test: cell-based; format: cell-based
T5 construct: expressed in transfected cells; host or cells: HEK293T cells stably expressing human RTP1S (V227I) and RTP2 (L220R)
T5 sequence (Q8NG98 with tags, fused parts or gaps D296E/G299D/E302K limits assumed): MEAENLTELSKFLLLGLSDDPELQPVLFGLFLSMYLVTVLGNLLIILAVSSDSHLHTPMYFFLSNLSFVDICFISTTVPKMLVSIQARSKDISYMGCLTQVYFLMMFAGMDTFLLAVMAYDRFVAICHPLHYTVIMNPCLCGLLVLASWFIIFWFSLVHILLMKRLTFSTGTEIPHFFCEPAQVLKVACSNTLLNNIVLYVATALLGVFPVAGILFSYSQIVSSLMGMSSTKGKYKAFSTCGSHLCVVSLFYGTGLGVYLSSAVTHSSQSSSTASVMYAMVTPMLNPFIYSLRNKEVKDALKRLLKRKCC
Description: as §1
Similarly, in Figure 7 the dose-response of OR7D4 is shown when tested both with androstenone and the closely related molecule androstenol. […] Thus, a better understanding of the receptive space of OR7D4 is possible based on the improved sensitivity of the assay provided by the modified variant.

[9] = wild-type, read-out: Potency EC50
[10] = changed C-term SEQ ID NO: 86, read-out: Potency EC50

SMILES: C/C(=C\CCC=O)CCCC(C)(C)O [Mahonial, (4E)-9-hydroxy-5,9-dimethyl-4-Decenal]
Fold-improvement potency [2]: 2.3
Fold-improvement threshold [2]: 11.5
Detection threshold; concentration for 2-fold induction [3]: 7.42 µM
EC50 [3, 9]: 46 µM
Detection threshold; concentration for 2-fold induction [4]: 0.65 µM
EC50 [4, 10]: 20 µM

SMILES: CC1CCC(C(C)C)C(O)C1 (stereo not shown) [Menthol]
Detection threshold; concentration for 2-fold induction [5]: 160 µM
EC50 [5, 9]: 236 µM
Detection threshold; concentration for 2-fold induction [6]: 11 µM
EC50 [6, 10]: 115 µM
Comments on efficacy [7]: 3-fold lower maximal induction for wild-type
Fold-improvement potency [7]: 2
functional response ([7]; OR8K3 with C-terminal sequence of OR1N2 or OR5AN1): did not show any functional response

SMILES: CCCC(C)(S)CCO (stereo not shown) [3-methyl-3-sulfanyl-hexanol]
activation of OR2M2 [1]: activated

SMILES: C[C@]12CC[C@@H](O)C[C@@H]1CC[C@@H]1[C@@H]2CC[C@]2(C)C=CC[C@@H]12 [androstenol]
activation of OR7D4 wild-type vs modified [8]: can only activate the modified version of the receptor

Continued, in another order:

activation of OR2M2 [1]: activated
SMILES: C=C(C)C1CCC2=CC(=O)CC(C)C2(C)C1 (stereo not shown) [Nootkatone, 5,6-Dimethyl-8-iso-propenylbicyclo-(4,4,0)-dec-1-en-3-one]

Detection threshold; concentration for 2-fold induction [5]: > 316 µM
SMILES: CC(C)[C@@H]1CC[C@@H](C)CC1=O [menthone]
activation of modified receptor variant ([6]; OR8K3 with SEQ ID NO: 86): also activating the receptor, although with a lower potency

activation of OR2M2 [1]: activated
SMILES: CCC(CC)C(=O)N(C)c1cccc(C)c1 [Paradisamide]
